What was measured:
[1] = tested on: HCT116 colon cancer cells; assay: Cell growth inhibition, Sulforhodamine B assay, HCT116; format: cell-based; settings: Homo sapiens, HCT-116, 120 h, 5 days culture, SRB assay, read-out: Cell Line GI50 Range HCT116
human PLK4 = molecular target: T1, human PLK4 (Homo sapiens, UniProt O00444); assay: PLK4 inhibition assay (indirect ELISA); format: biochemical; settings: GST-PLK4 4 nM, 15 μM ATP; read-out: IC50 Ranges PLK4
T1 construct: amino terminal GST fusion of residues 1-391 of human PLK4; made in house; host or cells: E. coli
T1 sequence (O00444 1-391): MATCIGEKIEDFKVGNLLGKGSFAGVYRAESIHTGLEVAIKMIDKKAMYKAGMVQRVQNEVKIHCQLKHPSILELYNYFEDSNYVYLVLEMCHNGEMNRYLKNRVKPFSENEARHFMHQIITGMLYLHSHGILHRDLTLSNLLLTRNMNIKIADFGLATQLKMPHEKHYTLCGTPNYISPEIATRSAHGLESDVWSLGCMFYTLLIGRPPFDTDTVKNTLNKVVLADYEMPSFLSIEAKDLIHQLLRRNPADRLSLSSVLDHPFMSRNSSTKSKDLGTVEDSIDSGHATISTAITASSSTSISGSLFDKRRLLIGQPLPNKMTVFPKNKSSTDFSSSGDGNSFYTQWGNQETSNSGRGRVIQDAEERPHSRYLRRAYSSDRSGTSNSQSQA
Protocol: Active PLK4 was purified from an E. coli expression system as an amino terminal GST fusion of residues 1-391 of human PLK4. The protein was purified from clarified cell extracts after induction at 15° C. overnight using glutathione sepharose, gel permeation chromatography, and ion exchange (Resource Q). The resulting protein was dephosphorylated with lambda phosphatase (NEB cat#P0753), and resolved from the phosphatase using gluthione sepharose. The dephosphorylated GST-PLK4 was stored in aliquots at −80° C. until use.
PLK4 activity was measured using an indirect ELISA detection system. GST-PLK4 (4 nM) was incubated in the presence of 15 μM ATP (Sigma cat#A7699), 50 mM HEPES-Na^2+ pH 7.5, 10 mM MgCl2, 0.01% Brij 35 (Sigma cat#03-3170), in a 96 well microtitre plate pre-coated with MBP (Millipore cat#30-011). The reaction was allowed to proceed for 30 minutes, followed by 5 washes of the plate with Wash Buffer (phosphate buffered saline supplemented with 0.2% Tween 20), and incubation for 30 minutes with a 1:3000 dilution of primary antibody (Cell Signaling cat#9381). The plate was washed 5 times with Wash Buffer, incubated for 30 minutes in the presence of secondary antibody coupled to horse radish peroxidase (BioRad cat#1721019, 1:3000 concentration), washed an additional 5 times with Wash Buffer, and incubated in the presence of TMB substrate (Sigma cat#T0440). The colourimetric reaction was allowed to continue for 5 minutes, followed by addition of stop solution (0.5 N sulphuric acid), and quantified by detection at 450 nm with either a monochromatic or filter based plate reader (Molecular Devices M5 or Beckman DTX880, respectively).
Compound inhibition was determined at either a fixed concentration (10 μM) or at a variable inhibitor concentration (typically 0.5 μM to 0.001 μM in a 10 point dose response titration). Compounds were pre-incubated in the presence of enzyme for 15 minutes prior to addition of ATP and the activity remaining quantified using the above described activity assay. The % Inhibition of a compound was determined using the following formula; % Inhibition=100×(1-(experimental value−background value)/(high activity control−background value)). The IC50 value was determined using a non-linear 4 point logistic curve fit (XLfit4, IDBS) with the formula; (A+(B/(1+((x/C)̂D)))), where A=background value, B=range, C=inflection point, D=curve fit parameter.

[2] = tested on: MDA-MB-468 breast cancer cells; assay: Cell growth inhibition, Sulforhodamine B assay, MDA-MB-468; format: cell-based; settings: Homo sapiens, 120 h, 5 days culture, SRB assay, read-out: Cell Line GI50 Range MDA-MB-468
Aurora B = molecular target: T2, Aurora B (Homo sapiens, UniProt Q96GD4); assay: Aurora B inhibition assay (Z-Lyte); format: biochemical; settings: 28 nM Aurora B, 128 μM ATP; read-out: IC50 Ranges Aurora B
T2 construct: purchased Invitrogen PV3970
T2 sequence (Q96GD4 whole entry): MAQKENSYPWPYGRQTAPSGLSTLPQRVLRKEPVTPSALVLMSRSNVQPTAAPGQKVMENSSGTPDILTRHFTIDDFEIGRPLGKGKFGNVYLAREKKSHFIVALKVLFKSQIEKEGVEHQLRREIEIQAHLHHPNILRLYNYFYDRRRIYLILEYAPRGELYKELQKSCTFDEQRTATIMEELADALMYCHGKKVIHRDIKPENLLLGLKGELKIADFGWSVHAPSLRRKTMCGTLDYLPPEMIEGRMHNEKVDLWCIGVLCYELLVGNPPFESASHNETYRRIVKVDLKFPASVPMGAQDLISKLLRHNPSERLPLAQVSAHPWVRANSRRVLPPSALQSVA
Protocol: Aurora B inhibition was determined using the Z-Lyte assay kit from Invitrogen. The assay was performed using the recommended manufacturer's instructions with 128 μM ATP and 28 nM Aurora B (Invitrogen cat #PV3970). The % inhibition values were determined according to the manufacturer's directions and IC50 values were obtained using a non-linear 4 point logistic curve fit (XLfit4, IDBS)

human TTK = molecular target: T3, human TTK (Homo sapiens, UniProt P33981); assay: TTK inhibition assay (indirect ELISA); format: biochemical; settings: GST-TTK 0.68 nM, 16 μM ATP; read-out: IC50 Ranges TTK
T3 construct: amino terminal GST fusion of full length human TTK; purchased Invitrogen
T3 sequence (P33981 1-857): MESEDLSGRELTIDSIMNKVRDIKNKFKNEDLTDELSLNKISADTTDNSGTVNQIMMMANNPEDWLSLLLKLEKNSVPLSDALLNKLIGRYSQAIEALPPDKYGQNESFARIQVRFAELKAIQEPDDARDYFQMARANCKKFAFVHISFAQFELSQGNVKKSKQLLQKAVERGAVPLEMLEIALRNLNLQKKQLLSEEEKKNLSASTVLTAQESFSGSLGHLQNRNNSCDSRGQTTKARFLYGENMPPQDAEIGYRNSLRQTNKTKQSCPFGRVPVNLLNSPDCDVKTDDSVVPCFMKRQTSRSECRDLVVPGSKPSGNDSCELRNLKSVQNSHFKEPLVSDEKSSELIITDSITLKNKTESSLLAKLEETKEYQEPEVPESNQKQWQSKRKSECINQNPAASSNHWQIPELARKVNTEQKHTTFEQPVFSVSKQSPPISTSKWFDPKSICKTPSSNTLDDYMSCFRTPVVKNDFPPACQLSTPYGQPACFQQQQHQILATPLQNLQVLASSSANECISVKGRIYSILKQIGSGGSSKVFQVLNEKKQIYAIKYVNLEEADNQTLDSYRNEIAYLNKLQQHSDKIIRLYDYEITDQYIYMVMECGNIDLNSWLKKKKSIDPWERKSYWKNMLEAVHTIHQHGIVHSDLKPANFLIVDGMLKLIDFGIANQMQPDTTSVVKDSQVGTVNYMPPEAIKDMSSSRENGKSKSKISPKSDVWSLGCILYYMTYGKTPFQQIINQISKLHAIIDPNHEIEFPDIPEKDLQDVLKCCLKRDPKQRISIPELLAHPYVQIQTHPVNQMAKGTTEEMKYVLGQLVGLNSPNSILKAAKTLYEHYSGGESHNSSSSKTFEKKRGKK

[3] = tested on: MDA-MB-231 breast cancer cells; assay: Cell growth inhibition, Sulforhodamine B assay, MDA-MB-231; format: cell-based; settings: Homo sapiens, 120 h, 5 days culture, SRB assay, read-out: Cell Line GI50 Range MDA-MB-231
HT29 colon cancer cells = assay: Cell growth inhibition, Sulforhodamine B assay, HT29; format: cell-based; settings: Homo sapiens, HT-29, 120 h, 5 days culture, SRB assay, read-out: Cell Line GI50 Range HT29

| Compound | GI50 [1] [µM] | IC50 (human PLK4) [µM] | GI50 [2] [µM] | IC50 (Aurora B) [µM] | IC50 (human TTK) [µM] | GI50 [3] [µM] | GI50 (HT29 colon cancer cells) [µM] |
| --- | --- | --- | --- | --- | --- | --- | --- |
| O=C(Nc1ccc2[nH]nc(-c3ccc(CN4CCOCC4)cc3)c2c1)C1CCCc2ccccc21 (stereo not drawn) [Example A23, N-(3-(4-(morpholinomethyl)phenyl)-1H-indazol-5-yl)-1,2,3,4-tetrahydronaphthalene-1-carboxamide] | ≤ 5 | ≤ 5 | ≤ 5 | – | ≤ 5 | 5 to 20 | – |
| O=C(Nc1ccc2[nH]nc(-c3ccc(CN4CCOCC4)cc3)c2c1)C(c1ccsc1)N1CCCC1 (stereo not drawn) [Example A3, N-(3-(4-(morpholinomethyl)phenyl)-1H-indazol-5-yl)-2-(pyrrolidin-1-yl)-2-(thiophen-3-yl)acetamide] | ≤ 5 | ≤ 5 | ≤ 5 | ≤ 5 | ≤ 5 | ≤ 5 | – |
| CN1CCC(Oc2ccc(-c3n[nH]c4ccc(NC(=O)C(c5ccsc5)N5CCCC5)cc34)cc2N)CC1 (stereo not drawn) [Example A80, N-(3-(3-amino-4-((1-methylpiperidin-4-yl)oxy)phenyl)-1H-indazol-5-yl)-2-(pyrrolidin-1-yl)-2-(thiophen-3-yl)acetamide] | ≤ 5 | ≤ 5 | ≤ 5 | ≤ 5 | ≤ 5 | – | ≤ 5 |
| O=C(Nc1ccc2[nH]nc(-c3ccc4c(c3)OCO4)c2c1)C(c1ccsc1)N1CCCC1 (stereo not drawn) [Example A14, N-(3-(benzo[d][1,3]dioxol-5-yl)-1H-indazol-5-yl)-2-(pyrrolidin-1-yl)-2-(thiophen-3-yl)acetamide] | ≤ 5 | ≤ 5 | ≤ 5 | – | ≤ 5 | ≤ 5 | – |
| C[C@H]1CCCN1[C@H](C(=O)Nc1ccc2[nH]nc(-c3ccc(N4CCOCC4)cc3)c2c1)c1cccs1 [Example A79, (R)-2-((S)-2-methylpyrrolidin-1-yl)-N-(3-(4-morpholinophenyl)-1H-indazol-5-yl)-2-(thiophen-2-yl)acetamide] | ≤ 5 | ≤ 5 | ≤ 5 | ≤ 5 | ≤ 5 | – | ≤ 5 |
| O=C(Nc1ccc2[nH]nc(-c3ccc(NC4CCOCC4)cc3)c2c1)C(c1ccsc1)N1CCCC1 (stereo not drawn) [Example A71, 2-(pyrrolidin-1-yl)-N-(3-(4-((tetrahydro-2H-pyran-4-yl)amino)phenyl)-1H-indazol-5-yl)-2-(thiophen-3-yl)acetamide] | ≤ 5 | ≤ 5 | ≤ 5 | ≤ 5 | ≤ 5 | – | ≤ 5 |

Now from value to compound:

| GI50 [1] [µM] | IC50 (human PLK4) [µM] | GI50 [2] [µM] | IC50 (Aurora B) [µM] | IC50 (human TTK) [µM] | GI50 [3] [µM] | GI50 (HT29 colon cancer cells) [µM] | Compound |
| --- | --- | --- | --- | --- | --- | --- | --- |
| ≤ 5 | ≤ 5 | ≤ 5 | 5 to 50 | ≤ 5 | ≤ 5 | – | CN(C)CCOc1ccc(-c2n[nH]c3ccc(NC(=O)C(c4ccsc4)N4CCCC4)cc23)cc1 (stereo not drawn) [Example A5, N-(3-(4-(2-(dimethylamino)ethoxy)phenyl)-1H-indazol-5-yl)-2-(pyrrolidin-1-yl)-2-(thiophen-3-yl)acetamide] |
| ≤ 5 | ≤ 5 | ≤ 5 | ≤ 5 | ≤ 5 | ≤ 5 | – | CN1CCN(c2ccc(-c3n[nH]c4ccc(NC(=O)C5CCCc6ccccc65)cc34)cc2)CC1 (stereo not drawn) [Example A11, N-(3-(4-(4-methylpiperazin-1-yl)phenyl)-1H-indazol-5-yl)-1,2,3,4-tetrahydronaphthalene-1-carboxamide] |
| ≤ 5 | ≤ 5 | ≤ 5 | ≤ 5 | ≤ 5 | ≤ 5 | – | CN1CCc2cc(-c3n[nH]c4ccc(NC(=O)C(c5ccsc5)N5CCCC5)cc34)ccc21 (stereo not drawn) [Example A16, N-(3-(1-methylindolin-5-yl)-1H-indazol-5-yl)-2-(pyrrolidin-1-yl)-2-(thiophen-3-yl)acetamide] |
| ≤ 5 | ≤ 5 | ≤ 5 | – | ≤ 5 | ≤ 5 | – | O=C(Nc1ccc2[nH]nc(-c3ccc4c(c3)OCCO4)c2c1)C(c1ccsc1)N1CCCC1 (stereo not drawn) [Example A15, N-(3-(2,3-dihydrobenzo[b][1,4]dioxin-6-yl)-1H-indazol-5-yl)-2-(pyrrolidin-1-yl)-2-(thiophen-3-yl)acetamide] |

— US20140051679A1, “KINASE INHIBITORS AND METHOD OF TREATING CANCER WITH SAME” (UNIVERISTY HEALTH NETWORKS, priority 2011, published 2014)
